From publication PMC3404106, “Pharmacology of DB844, an Orally Active aza Analogue of Pafuramidine, in a Monkey Model of Second Stage Human African Trypanosomiasis” (PLoS Neglected Tropical Diseases, 2012)
Several values for one entry are separate records, joined by “and”; a condition that tells them apart may be missing. Equal values may be shown once. Entries after “also recorded” stand apart in the source; their conditions may differ.

Tests used:
[1] = test system: Trypanosoma brucei rhodesiense KETRI 2537; experiment: Efficacy in vervet monkey model of second stage HAT; assay type: in vivo; conditions: for TOC test at 300 days post last dose / EoT test at 1 day post last dose (trypanosomes in blood/CSF) / EoT test at 4 days post last dose (trypanosomes in blood/CSF): individual monkeys; for EoT test at 1 day post last dose (trypanosomes in blood/CSF) / EoT test at 4 days post last dose (trypanosomes in blood/CSF): Neg/Pos
Excerpt: A pleomorphic isolate, T.b rhodesiense KETRI 2537, a derivative of EATRO 1989 that was isolated from a patient in Uganda by direct inoculation of blood and lymph node aspirate into a monkey and later cryopreserved at KARI- TRC [18], was used. This isolate is the basis of the KETRI vervet monkey and mouse models and has been widely used for drug efficacy trials, [20].
Sixteen vervet monkeys in two groups of eight monkeys each (four males and four females) were used. After a 14-day baseline weight, clinical and haematology data collection period, the sixteen monkeys were infected by intravenous injection of approximately 10^4 trypanosomes diluted from infected blood of immuno-suppressed donor Swiss white mice. Parasitaemia post infection was determined by examination of wet film of ear prick blood and/or examination of buffy coat after centrifugation of blood collected in a heparinised capillary tube as described previously. Parasitaemia in wet film was estimated using the rapid matching method of Herbert and Lumsden. In addition, monkeys were confirmed to be in second stage disease by detection of trypanosomes in the CSF with or without elevated white cell counts above 5 cells/µl, [20], [21], [23]. At 28 days post infection (DPI), the animals were treated with DB844 via oral gavage at 5 mg/kg qd×10 days (group I, n = 8) or 6 mg/kg qd×14 days (group II, n = 8), utilising a dose volume of 1 ml/kg. The monkeys were examined for parasitaemia every day during drug treatment and then twice weekly until ≥300 days post dosing, at which point monkeys were considered cured if they remained clinically normal and parasite-free as determined below.

[2] = Pharmacokinetics (plasma and CSF) in infected monkeys after last DB844 dose
[3] = Toxicity study of 10-day oral DB844 regimens in uninfected monkeys
[4] = Metabolism of DB844 in vervet monkey liver microsomes; assay type: in vitro ADME; conditions: 10 µM DB844, 0.2 mg/ml male vervet monkey liver microsomes
Method: The metabolism of DB844 was investigated using liver microsomes, prepared from a male vervet monkey by XenoTech, LLC (Lenexa, KS), in the presence of NADPH as described previously with modifications. Briefly, incubation mixtures (1 ml at pH7.4, in triplicate) contained 10 µM DB844 and 0.2 mg/ml monkey liver microsomes. After a 5-min equilibration period at 37°C, reactions were initiated with the addition of NADPH. Aliquots (50 µl) of the reaction mixtures were removed at 0, 5, 10, 15, 30, 60, 90, and 120 min and mixed with 25 µl of ice-cold acetonitrile. The mixtures were centrifuged (10,000×g for 5 min at 4°C) and the supernatants were analyzed by HPLC/UV using the same method as previously described for DB289 [22]. […] DB844 and metabolites were quantified using a single-concentration calibration curve generated using synthetic standards.

[5] = test system: 1st stage experimental murine HAT infections; design: method as in PMID 19620327; conditions: DB844 at 25 mg/kg; cited from earlier work
[6] = Safety monitoring (clinical, haematology, clinical chemistry) in infected DB844-treated monkeys; assay type: in vivo, vervet monkey; conditions: for RBC / Haematocrit / Hemoglobin / Mean corpuscular haemoglobin / Mean corpuscular volume / Platelet counts / WBC counts: infected monkeys
Method: Haematology samples (1 ml) were analysed using an AC^3diffT Coulter Counter (Miami, Florida, USA). Clinical chemistries were determined using a Humalyzer analyser system. Finally, plasma and CSF were analyzed for drug and metabolite concentrations using an HPLC-tandem Mass Spectrometry (HPLC-MS/MS) procedure as described below.

[7] = group I: DB844 5 mg/kg×10 days per os, 28–37 DPI, 5 mg/kg
[8] = group II: DB844 6 mg/kg×14 days per os, 28–41 DPI, 6 mg/kg
[9] = relapsed monkeys of both groups
[10] = plasma, after the 14th oral dose of DB844 at 6 mg/kg, n = 7, geometric mean, analyte = label
[11] = uninfected monkeys, DB844 5 mg/kg×10 days orally, monkeys 572F, 582M
[12] = uninfected monkeys, DB844 10 mg/kg×10 days orally, monkeys 541F, 578M, 10 mg/kg
[13] = uninfected monkeys, DB844 10 mg/kg×10 days orally, monkeys 541F, 578M, parenthesis = days post first dose when observed, 10 mg/kg
[14] = vervet 578, 10 mg/kg×10 days orally, uninfected
[15] = infected monkeys after oral DB844 treatment, days post last dose
[16] = DB844 6 mg/kg×14 days, 41 DPI (0 days post last dose)
[17] = DB844 6 mg/kg×14 days, 48 DPI (7 days post last dose)
[18] = DB844 6 mg/kg×14 days, 69 DPI (28 days post last dose)
[19] = DB844 6 mg/kg×14 days, 104 DPI (63 days post last dose)

SMILES: CONC(=N)c1ccc(-c2ccc(-c3ccc(C(=N)NOC)cn3)o2)cc1 [DB844, N-methoxy-6-{5-[4-(N-methoxyamidino)phenyl]-furan-2-yl}-nicotinamidine]
- EoT provisional cure rate at 4 days post dosing ([1]; both groups (5 mg/kg×10 days and 6 mg/kg×14 days)): 100%
- overall cure rate ([1]; both study groups): approximately 40%
- trypanosomes in the blood or cerebrospinal fluid at end of treatment evaluation ([1]; four days post the last drug dose, any monkey): not detected
- TOC test at 300 days post last dose [1, 7]: Cured; also recorded: Relapsed
- EoT test at 1 day post last dose (trypanosomes in blood/CSF) [1, 7]: Neg and Pos
- EoT test at 4 days post last dose (trypanosomes in blood/CSF) [1, 7]: neg and Neg
- TOC test at 300 days post last dose [1, 8]: Cured; also recorded: Relapsed
- EoT test at 4 days post last dose (trypanosomes in blood/CSF) ([1]; group II: DB844 6 mg/kg×14 days per os, 28–41 DPI): Neg
- EoT test at 1 day post last dose (trypanosomes in blood/CSF) [1, 8]: Neg and Pos
- cure rate in the vervet monkey model of 2nd stage HAT ([1]; oral DB844, best of the two regimens): up to 43%
- median (range) time to trypanosome recrudescence in CSF [1, 9]: 133 (35–322, n = 9) days and 133 days
- median (range) time to trypanosome recrudescence in blood [1, 9]: 261 (239–322, n = 3) days and 261 days
- detection in CSF after the 1 h post dose sample ([2]; after last dose of DB844 6 mg/kg×14 days): not detected thereafter
- concentration at 1 h ([2]; monkey, CSF, oral, 6 mg/kg): 17 nM
- half-life ([2]; monkey, in vivo, po, 6 mg/kg): 5.8 h
- CL/F ([2]; monkey, plasma, po, 6 mg/kg): 167 mL/min/kg
- half-life ([2]; monkey, plasma, po, 6 mg/kg): 5.76 h
- Tmax ([2]; monkey, plasma, po, 6 mg/kg, Tmax, plasma, after the 14th oral dose of DB844 at 6 mg/kg, n = 7, median, analyte = label): 0.96 h
- Tmax ([2]; monkey, plasma, po, 6 mg/kg, time of peak plasma concentration, after the last (14th) dose of DB844 at 6 mg/kg, analyte = label): 1 h
- AUC(0-∞) [2, 10]: 70 nmol·days/L
- AUClast [2, 10]: 68 nmol·days/L
- monkeys in which no adverse clinical signs of toxicity were elicited ([3]; uninfected monkeys, 5 mg/kg/day orally for 10 days): 2/2
- monkeys with overt toxicity ([3]; uninfected monkeys, 10 mg/kg/day orally for 10 days): 1/2
- monkeys with overt toxicity ([3]; uninfected monkeys, 20 mg/kg/day orally (8 doses given)): 2/2
- weight loss (maximum among adverse clinical events) ([3]; uninfected monkeys, 5, 10 or 20 mg/kg/day orally): up to 10.5%
- Adverse clinical events: GIT changes [3, 11]: None
- Adverse clinical events: Jaundice [3, 11]: None
- Adverse clinical events: Reduced feed intake [3, 11]: None
- Daily doses completed [3, 11]: 10/10
- Euthanised due to toxicity [3, 11]: No
- % weight loss ([3]; uninfected monkeys, DB844 5 mg/kg×10 days orally, monkeys 572F, 582M, 5 mg/kg): 1.8% and 4.9%
- Daily doses completed ([3]; uninfected monkeys, DB844 10 mg/kg×10 days orally, monkeys 541F, 578M): 10/10
- % weight loss [3, 12]: 4.6% and 10.5%
- Adverse clinical events: Jaundice [3, 12]: None and yes
- Adverse clinical events: GIT changes [3, 13]: None and Yes (16)
- Adverse clinical events: Reduced feed intake [3, 13]: Yes (11); also recorded: Yes (14)
- Euthanised due to toxicity ([3]; uninfected monkeys, DB844 10 mg/kg×10 days orally, monkeys 541F, 578M, parenthesis = days post first dose, 10 mg/kg): No and Yes (16)
- Adverse clinical events: Jaundice ([3]; uninfected monkeys, DB844 20 mg/kg×10 days orally, monkeys 543F, 606M): yes
- % weight loss ([3]; uninfected monkeys, DB844 20 mg/kg×10 days orally, monkeys 543F, 606M, 20 mg/kg): 9.1% and 6.5%
- Daily doses completed ([3]; uninfected monkeys, DB844 20 mg/kg×10 days orally, monkeys 543F, 606M, dosing withdrawn on overt toxicity): 8/10
- Adverse clinical events: GIT changes ([3]; uninfected monkeys, DB844 20 mg/kg×10 days orally, monkeys 543F, 606M, parenthesis = days post first dose when observed): Yes (8)
- Adverse clinical events: Reduced feed intake ([3]; uninfected monkeys, DB844 20 mg/kg×10 days orally, monkeys 543F, 606M, parenthesis = days post first dose when observed, 20 mg/kg): Yes (8); also recorded: Yes (9)
- Euthanised due to toxicity ([3]; uninfected monkeys, DB844 20 mg/kg×10 days orally, monkeys 543F, 606M, parenthesis = days post first dose, 20 mg/kg): Yes (9); also recorded: Yes (10)
- monkeys in which the dose was well tolerated ([3]; uninfected monkeys, middle dose 10 mg/kg×10 days): 1/2
- mean corpuscular volume (MCV) after rise from 76.6 [3, 14]: 86.9 fL
- red cell distribution width (RDW) after rise from 15 [3, 14]: 18.4
- rise in mean corpuscular volume (MCV) [3, 14]: 13%
- rise in red cell distribution width (RDW) [3, 14]: 23%
- metabolites formed over a 120 min incubation period [4]: at least seven
- half-life at 10 µM ([4]; pH 7.4, NADPH, 37°C, pH7.4, read-out: microsomal half-life): ~0.233 h
- cure of 1st stage experimental murine HAT infection [5]: curative
- mean plasma ALT at its peak ([6]; group II, 6 mg/kg, after 7 daily drug doses (34 DPI), baseline 4.5±0.9 IU): 13.6±3.8 IU
- alkaline phosphatase change during and after drug administration ([6]; group II, 6 mg/kg×14 days): no significant changes
- plasma creatinine change from baseline ([6]; group II, 6 mg/kg×14 days): not significant
- total bilirubin and direct bilirubin changes ([6]; group II, 6 mg/kg×14 days): none of the changes were statistically significant
- increase of mean plasma AST above baseline ([6]; group II, 6 mg/kg×14 days, 24 hours post dosing): 3.3 times
- mean (± SE) plasma AST ([6]; group II, 6 mg/kg×14 days, 24 hours post dosing, baseline 37.0±4.8 IU): 121±21.6 IU
- blood urea nitrogen (BUN) as indicator of renal function ([6]; group II, 6 mg/kg×14 days, from 48 h post dosing (43 DPI)): mild and reversible decrease in kidney function
- increases in plasma transaminases (AST and ALT) ([6]; group II, efficacy study): 2–3 fold
- time to reversal of transaminase elevations after the last drug dose ([6]; group II, efficacy study): 4 to 7 days
- time to re-establishment of baseline RBC associated parameters [6, 15]: 28 to 63 days
- time to re-establishment of baseline platelet parameters [6, 15]: within seven
- drug related haematology changes ([6]; infected monkeys treated with oral DB844 (5 and 6 mg/kg)): no drug related haematology changes; also recorded: No DB844-related haematological aberrations
- RBC ([6]; DB844 6 mg/kg×14 days (28–41 DPI), 41 DPI (0 days post last dose)): 4.8±0.3, p<0.0001 ×10^6/µl
- Haematocrit [6, 16]: 31.6±1.6, p<0.0001%
- Hemoglobin [6, 16]: 11.2±0.7, p<0.0001 g/dl
- Mean corpuscular haemoglobin [6, 16]: 23.0±0.3 p<0.008 g/dl
- Mean corpuscular volume [6, 16]: 65.3±0.9, p = 0.0001 fl
- Platelet counts [6, 16]: 406.5±22.5 p = 0.05 ×10^3/µl
- WBC counts [6, 16]: 7.1±1.0, p = 0.12 ×10^3/µl
- Haematocrit [6, 17]: 31.8±1.6, p<0.0001%
- Hemoglobin [6, 17]: 11.5±0.6, p<0.0001 g/dl
- Mean corpuscular haemoglobin [6, 17]: 23.3±0.4 p = 0.07 g/dl
- Mean corpuscular volume [6, 17]: 64.8±0.9, p = 0.0001 fl
- Platelet counts [6, 17]: 390.7±32.4, p = 0.11 ×10^3/µl
- RBC [6, 17]: 4.9±0.2, p<0.004 ×10^6/µl
- WBC counts [6, 17]: 5.6±1.2, p = 0.9 ×10^3/µl
- Haematocrit [6, 18]: 43.8±1.6, p = 0.91%
- Hemoglobin [6, 18]: 12.8±0.5, p = 0.15 g/dl
- Mean corpuscular haemoglobin [6, 18]: 23.4±0.6, p = 0.13 g/dl
- Mean corpuscular volume [6, 18]: 79.8±1.4, p = 0.11 fl
- Platelet counts [6, 18]: 332.2±11.9, p = 0.78 ×10^3/µl
- RBC [6, 18]: 5.5±0.2, p = 0.55 ×10^6/µl
- WBC counts [6, 18]: 5.9±0.8, p = 0.8 ×10^3/µl
- Haematocrit [6, 19]: 46.7±2.7, p = 0.91%
- Hemoglobin [6, 19]: 14.1±0.8, p = 0.11 g/dl
- Mean corpuscular haemoglobin [6, 19]: 23.3±0.5 p = 0.21 g/dl
- Mean corpuscular volume [6, 19]: 77.0±1.5, p = 0.21 fl
- Platelet counts [6, 19]: 294.3±17.4 p = 0.55 ×10^3/µl
- RBC [6, 19]: 6.1±0.3 p = 0.02 ×10^6/µl
- WBC counts [6, 19]: 5.1±0.1, p = 0.4 ×10^3/µl
